Results from ChEMBL document CHEMBL1138980, “Triazolo[1,5-a]pyrimidines as novel CDK2 inhibitors: protein structure-guided design and SAR” (Bioorg Med Chem Lett, 2006).
pIC50: −log10 of the molar value.

What was measured:
[1] = biological target: T1, Serine/threonine-protein kinase Chk1 (Homo sapiens, UniProt O14757); test: Inhibition of Chk1
T1 sequence (O14757 whole entry): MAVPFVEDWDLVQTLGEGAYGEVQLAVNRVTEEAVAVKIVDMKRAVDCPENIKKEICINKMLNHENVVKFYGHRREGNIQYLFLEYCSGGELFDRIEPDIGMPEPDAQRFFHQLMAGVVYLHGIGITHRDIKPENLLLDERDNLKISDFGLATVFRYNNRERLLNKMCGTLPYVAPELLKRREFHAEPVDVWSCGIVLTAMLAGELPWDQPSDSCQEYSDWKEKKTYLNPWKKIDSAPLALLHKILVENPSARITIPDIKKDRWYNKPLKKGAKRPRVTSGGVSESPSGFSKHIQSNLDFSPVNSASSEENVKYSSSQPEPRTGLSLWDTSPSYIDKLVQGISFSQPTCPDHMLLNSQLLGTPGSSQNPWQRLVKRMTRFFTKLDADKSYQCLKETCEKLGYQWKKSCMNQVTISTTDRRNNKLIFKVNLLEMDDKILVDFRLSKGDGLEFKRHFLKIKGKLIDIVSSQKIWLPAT

[2] = Inhibition of PDK1; parameters: species or system Homo sapiens
HCT-116 = test: Antiproliferative activity against HCT116 colon cancer cell line; assay type: functional; settings: Homo sapiens
[3] = biological target: Cyclin-dependent kinase 2 (Homo sapiens, UniProt P24941); test: Inhibition of CDK2 using 100 uM ATP
[4] = biological target: Glycogen synthase kinase-3 beta (Homo sapiens, UniProt P49841); test: Inhibition of GSK3-beta using 10 uM ATP
Glycogen synthase kinase-3 beta, sequence (P49841 whole entry): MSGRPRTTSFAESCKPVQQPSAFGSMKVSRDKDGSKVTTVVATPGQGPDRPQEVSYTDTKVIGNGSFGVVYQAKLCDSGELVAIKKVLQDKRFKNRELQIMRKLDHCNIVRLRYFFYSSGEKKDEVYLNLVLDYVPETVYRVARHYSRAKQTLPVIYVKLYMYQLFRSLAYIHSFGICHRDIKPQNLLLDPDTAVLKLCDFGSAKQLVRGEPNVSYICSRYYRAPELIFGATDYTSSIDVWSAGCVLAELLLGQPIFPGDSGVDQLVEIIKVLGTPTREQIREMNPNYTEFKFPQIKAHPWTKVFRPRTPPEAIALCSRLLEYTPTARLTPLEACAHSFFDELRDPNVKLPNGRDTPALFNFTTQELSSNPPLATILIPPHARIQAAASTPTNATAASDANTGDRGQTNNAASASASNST

[5] = biological target: Cyclin-dependent kinase 1 (Homo sapiens, UniProt P06493); test: Inhibition of CDK1 using 100 uM ATP
Cyclin-dependent kinase 1, sequence (P06493 whole entry): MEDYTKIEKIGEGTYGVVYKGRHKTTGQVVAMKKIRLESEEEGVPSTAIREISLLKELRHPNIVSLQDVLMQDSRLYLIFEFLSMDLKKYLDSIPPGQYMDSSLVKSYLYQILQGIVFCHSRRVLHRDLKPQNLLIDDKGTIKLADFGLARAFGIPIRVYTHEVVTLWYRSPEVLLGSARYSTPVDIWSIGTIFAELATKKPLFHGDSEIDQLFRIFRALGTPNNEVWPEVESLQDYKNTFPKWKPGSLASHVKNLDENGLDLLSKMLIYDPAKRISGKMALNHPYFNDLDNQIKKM

CN(C)S(=O)(=O)c1ccc(Nc2cc(N[C@H]3CC[C@H](N)CC3)nc3ncnn23)cc1
pIC50 [1]: 4.68
pIC50 [2]: < 3.70
GI50 (HCT-116): > 80 µM
pIC50 [3]: 6.92
pIC50 [4]: 4.70
pIC50 [5]: 5.25

NS(=O)(=O)c1ccc(Nc2cc(OC3CCCCC3)nc3ncnn23)cc1
GI50 (HCT-116): 25 µM
pIC50 [4]: 6.72
pIC50 [5]: 6.85

NS(=O)(=O)c1ccc(Nc2cc(NC3CCCCC3)nc3ncnn23)cc1
GI50 (HCT-116): 31 µM
pIC50 [4]: 6.01

CCN(CC)c1cc(Nc2ccc(S(N)(=O)=O)cc2)n2ncnc2n1
GI50 (HCT-116): 23 µM
pIC50 [3]: 6.40
pIC50 [4]: 4.96
pIC50 [5]: 5.47

NS(=O)(=O)c1ccc(Nc2cc(N[C@H]3CC[C@H](O)CC3)nc3ncnn23)cc1
GI50 (HCT-116): 39 µM

Brc1cccc(-c2cc(NCc3ccncc3)n3nccc3n2)c1
GI50 (HCT-116): 8 µM

NS(=O)(=O)c1ccc(Nc2cc(OCC3CCCCC3)nc3ncnn23)cc1
pIC50 [4]: 4.54

CS(=O)(=O)c1ccc(Nc2cc(N[C@H]3CC[C@H](N)CC3)nc3ncnn23)cc1
GI50 (HCT-116): > 80 µM
pIC50 [4]: 4.37
pIC50 [5]: 4.80

NS(=O)(=O)c1ccc(Nc2nc(OCC3CCCCC3)c3nc[nH]c3n2)cc1
pIC50 [1]: > 6.30
pIC50 [2]: > 6.30
pIC50 [4]: 7.40

NS(=O)(=O)c1ccc(Nc2cc(N[C@H]3CC[C@H](N)CC3)nc3ncnn23)cc1
pIC50 [2]: 4.37
GI50 (HCT-116): > 80 µM
pIC50 [4]: 6.11

N[C@H]1CC[C@H](Nc2cc(Nc3ccc(S(=O)(=O)c4ccccc4)cc3)n3ncnc3n2)CC1
GI50 (HCT-116): > 80 µM
pIC50 [4]: 4.30
pIC50 [5]: 5.37
